Assay: Solvent solubility evaluation in o-dichlorobenzene
Format: physicochemical
Settings: heated at 100° C., visual confirmation of dissolution, (w/Vd)×100
Method: Approximately 1 mg of each compound (accurate weight was w (mg)) was weighed in a sample tube, and 20 μL of o-dichlorobenzene was added thereto by using a micropipette. The sample tube was capped and heated at 100° C. by a hot plate. Whether or not the compound was dissolved was visually confirmed. When the compound was not dissolved, the operation of adding o-dichlorobenzene in an amount of 20 μL per addition until the compound was dissolved and heating to 100° C. was repeated.
The solubility (wt. %) of the compound was calculated based on the following formula. Note that V in the formula is a volume (μL) of the o-dichlorobenzene added to dissolve the compound, and d is a density (g/cm^3) of the o-dichlorobenzene.
Solubility (%)=(w/Vd)×100

| Structure (SMILES) | Solubility (%) |
| --- | --- |
| O=C1c2ccc3c4ncc5c6c(ccc(c7ncc(c2c37)C(=O)N1CCc1ccccc1)c64)C(=O)N(CCc1ccccc1)C5=O [Compound (IX), reference compound] | <0.0007% |
| CCCN1C(=O)c2cnc3c4c(C#N)cc5c6c(cnc(c7c(C#N)cc1c2c37)c64)C(=O)N5CCC [Compound (VI)] | 0.027% |
| CCCCCCN1C(=O)c2cnc3c4c(C#N)cc5c6c(cnc(c7c(C#N)cc1c2c37)c64)C(=O)N5CCCCCC [Compound (VIII)] | 0.52% |

Results, then the compound that gave them:

| Solubility (%) | Structure (SMILES) |
| --- | --- |
| 0.58% | CCCCCCCCN1C(=O)c2cnc3c4ccc5c6c(cnc(c7ccc1c2c73)c64)C(=O)N5CCCCCCCC [Compound (II)] |
| 0.49% | CCCCCCCCN1C(=S)c2cnc3c4ccc5c6c(cnc(c7ccc1c2c73)c64)C(=S)N5CCCCCCCC [Compound (III)] |
| 0.019% | CCCCCCCCN1C(=O)c2ccc3c4ncc5c6c(ccc(c7ncc(c2c37)C1=O)c64)C(=O)N(CCCCCCCC)C5=O [Compound (X), reference compound] |

— US20230276703A1, “ORGANIC SEMICONDUCTOR MATERIAL” (The University of Tokyo, priority 2020, published 2023)
